Experimental data reported in patent publication US6365769B1, “Perfluoroalkyl halides and derivatives” (3M Innovative Properties Company, priority 1991, dated 2002).

Experiments:
Type in all cases: physicochemical
[1] = Surface tension of the aqueous solution, Du Nouy tensiometer; conditions: for SURFACE TENSION (dynes/cm) 500 ppm: 500 ppm in water; for SURFACE TENSION (dynes/cm) 100 ppm: 100 ppm in water
Protocol: (§1) The materials of the invention were diluted in water to 0.05% (500 ppm) and/or 0.01% (100 ppm), and the surface tension of the aqueous solution was measured using a Du Nouy tensiometer. Foam height was measured as volume in a graduated cylinder. Half-life time (t ½) is the time for half the liquid present in the foam to drain from the foam. The foam was generated by a wire wisk in a Hobart mixer. Thus, 200 mL of surfactant solution to be tested is placed in a bowl of Hobart Model N-50 mixer equipped with a wire wisk stirrer and stirred for 3 minutes at medium speed (setting 2=300 rpm). The foam produced was immediately transferred to a 4000 mL graduated cylinder for measuring foam height and half-life time.

[2] = Foam height, foam generated in Hobart mixer; conditions: 500 ppm in water; 200 mL solution stirred 3 minutes
Protocol: as §1

[3] = Foam half-life time (drainage of half the liquid); conditions: 500 ppm in water
Protocol: as §1

## CCCCCCCCCC(O)C/[N+](C)=C/CCCS(=O)(=O)[O-] (centres unmarked) [Example 71]
[1]
  SURFACE TENSION (dynes/cm) 500 ppm: 17.5 dynes/cm

## C8F17C2H4O(C2H4O)nH [Example 69]
[1]
  SURFACE TENSION (dynes/cm) 500 ppm: 21.7 dynes/cm

## O=C(CC(C(=O)OCCC(F)(F)C(F)(F)C(F)(F)C(F)(F)F)S(=O)(=O)[O-])OCCC(F)(F)C(F)(F)C(F)(F)C(F)(F)F.[Na+] (centres unmarked) [C14, reference compound]
[1]
  SURFACE TENSION (dynes/cm) 100 ppm: 30.5 dynes/cm
  SURFACE TENSION (dynes/cm) 500 ppm: 21.7 dynes/cm

## CCS(=O)(=O)[O-].CC[N+](C)(C)CCOC(=O)CCNCCNCCC(=O)OCCC(F)(F)C(F)(F)C(F)(F)C(F)(F)C(F)(F)C(F)(F)C(F)(F)C(F)(F)F [Example 61, [C8F17CH2CH2OC(O)CH2CH2NHCH2CH2NHCH2CH2C(O)OCH2CH2N^+(CH3)2CH2CH3] [CH3CH2SO^−3]]
[1]
  SURFACE TENSION (dynes/cm) 100 ppm: 21.3 dynes/cm
  SURFACE TENSION (dynes/cm) 500 ppm: 19.9 dynes/cm

## O=C(CC(C(=O)OCCC(F)(F)C(F)(F)C(F)(F)C(F)(F)F)S(=O)(=O)[O-])OCCC(F)(F)C(F)(F)C(F)(F)C(F)(F)F.[Na+] (centres unmarked) [Example 45, C4F9CH2CH2OC(O)CH2CH(SO3Na)C(O)OCH2CH2C4F9]
[1]
  SURFACE TENSION (dynes/cm) 100 ppm: 24.2 dynes/cm
  SURFACE TENSION (dynes/cm) 500 ppm: 17.7 dynes/cm

## CC(C)(CNC(=O)CCSCCC(F)(F)C(F)(F)C(F)(F)C(F)(F)C(F)(F)C(F)(F)C(F)(F)C(F)(F)F)CS(=O)(=O)[O-].[K+] [Example 47, C8F17CH2CH2SCH2CH2C(O)NHCH2C(CH3)2CH2SO3K]
[1]
  SURFACE TENSION (dynes/cm) 100 ppm: 24.0 dynes/cm
  SURFACE TENSION (dynes/cm) 500 ppm: 19.0 dynes/cm

## N.O=S(=O)(O)OCCC(F)(F)C(F)(F)C(F)(F)C(F)(F)C(F)(F)C(F)(F)C(F)(F)C(F)(F)F [Example 43, C8F17CH2CH2OSO3NH4]
[1]; 500 ppm as printed (second surface tension column of Tables 12, 14)
  SURFACE TENSION (dyne/cm) 500 ppm: 22.8 dyne/cm
[1]; 500 ppm in water (first surface tension column of Tables 12, 14)
  SURFACE TENSION (dyne/cm) 500 ppm: 19.5 dyne/cm
[2]
  FOAM HEIGHT (VOLUME): 400
[3]
  HALF-LIFE TIME (SEC) / t ½: <30 s

## C8F17CH2CH2S(CH2CH2O)12(CH2CH(CH3)O)3H [Example 70]
[1]
  SURFACE TENSION (dynes/cm) 500 ppm: 23.1 dynes/cm

## CC(C)(CNC(=O)CCNCCNCCC(=O)OCCC(F)(F)C(F)(F)C(F)(F)C(F)(F)C(F)(F)C(F)(F)C(F)(F)C(F)(F)F)CS(=O)(=O)[O-].[K+] [Example 55, C8F17CH2CH2OC(O)CH2CH2NHCH2CH2NHCH2CH2C(O)NHCH2C(CH3)2CH2SO3K]
[1]
  SURFACE TENSION (dynes/cm) 100 ppm: 26.2 dynes/cm
  SURFACE TENSION (dynes/cm) 500 ppm: 20.1 dynes/cm
